Reference: patent US20060069132A1, “Azolecarboxamide herbicides” (priority 2004, published 2006)

Assays:
[1] = tested on: cocklebur; experiment: Test B pre-/postemergence herbicide test; type: in vivo, Xanthium strumarium; settings: for Cocklebur plant response rating: postemergence, scale 0 (no effect) to 100 (complete control)
In short: (§1)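 Test chemicals in a non-phytotoxic solvent mixture with surfactant were applied preemergence to seeded species and postemergence to plants 2-18 cm tall (1- to 4-leaf stage); rice and barnyardgrass were also tested in a flooded paddy at the 2-leaf stage. Visual rating versus controls after 13-15 days in greenhouse, scale 0 (no effect) to 100 (complete control).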

[2] = tested on: small flower umbrella sedge; experiment: Test B flooded paddy test; type: in vivo, Cyperus difformis; settings: 1000 g ai/ha, scale 0 to 100 (0 no effect, 100 complete control)
In short: (§2)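 Paddy species grown to the 2-leaf stage under flooding; blackgrass sprayed postemergence at 2–18 cm (1- to 4-leaf stage). Plants kept in a greenhouse for 13 to 15 days, then visually rated against controls on 0 (no effect) to 100 (complete control).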

[3] = tested on: velvetleaf; experiment: Test B pre-/postemergence herbicide test; type: in vivo, Abutilon theophrasti; settings: for Velvetleaf plant response rating: postemergence
In short: (§3)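 Visual rating, 0 (no effect) to 100 (complete control), versus untreated controls after 13–15 d in greenhouse. Pre- and postemergence applications (postemergence plants 2–18 cm, 1–4 leaves); flooded paddy arm at 2-leaf stage. Compounds in non-phytotoxic solvent plus surfactant.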

[4] = tested on: Surinam grass; experiment: Test B pre-/postemergence herbicide test; type: in vivo, Urochloa decumbens; settings: for Surinam Grass plant response rating: postemergence
In short: as §3

[5] = tested on: corn; experiment: Test B pre-/postemergence herbicide test; type: in vivo, Zea mays; settings: for Corn plant response rating: postemergence
In short: as §3

[6] = tested on: barnyardgrass; experiment: Test B pre-/postemergence herbicide test; type: in vivo, Echinochloa crus-galli; settings: for Barnyardgrass plant response rating: postemergence, scale 0 (no effect) to 100 (complete control)
In short: as §1

[7] = tested on: wild oat; experiment: Test B postemergence herbicide test; type: in vivo, Avena fatua; settings: postemergence
In short: (§4)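 Greenhouse test; postemergence application to plants at 1–4 leaves (2–18 cm); paddy species at 2 leaves; evaluated visually vs controls at 13–15 days; scale 0–100 (100 = complete control).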

[8] = tested on: ducksalad; experiment: Test B flooded paddy test; type: in vivo, Heteranthera limosa; settings: 1000 g ai/ha, scale 0 to 100 (0 no effect, 100 complete control)
In short: as §2

[9] = tested on: wheat; experiment: Test B postemergence herbicide test; type: in vivo, Triticum aestivum; parameters: key to Wheat plant response rating: 0 = no effect, 100 = complete control; settings: postemergence
In short: as §4

[10] = tested on: large crabgrass; experiment: Test B pre-/postemergence herbicide test; type: in vivo, Digitaria sanguinalis; settings: for Crabgrass, Large plant response rating: postemergence
In short: as §3

[11] = tested on: giant foxtail; experiment: Test B pre-/postemergence herbicide test; type: in vivo, Setaria faberi; settings: for Foxtail, Giant plant response rating: postemergence
In short: as §3

[12] = tested on: pigweed; experiment: Test B pre-/postemergence herbicide test; type: in vivo, Amaranthus retroflexus; settings: for Pigweed plant response rating: postemergence
In short: as §3

[13] = tested on: rice; experiment: Test B flooded paddy test; type: in vivo, Oryza sativa; settings: 1000 g ai/ha, scale 0 to 100 (0 no effect, 100 complete control)
In short: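 Read-out: visual comparison with controls, scored 0 to 100, where 100 means complete control and 0 no effect. Formulated chemicals were applied postemergence to plants 2–18 cm tall (1- to 4-leaf), or to flooded-paddy plants at the 2-leaf stage, then held 13 to 15 days under glass.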

[14] = tested on: lambsquarters; experiment: Test B pre-/postemergence herbicide test; type: in vivo, Chenopodium album; settings: for Lambsquarters plant response rating: postemergence
In short: as §3

[15] = tested on: blackgrass; experiment: Test B postemergence herbicide test; type: in vivo, Alopecurus myosuroides; settings: postemergence, visual rating, scale 0 (no effect) to 100 (complete control)
In short: as §2

[16] = 125 g ai/ha, 0 = no effect, 100 = complete control, preemergence
[17] = 500 g ai/ha, visual rating, 0 = no effect, 100 = complete control, preemergence
[18] = 125 g ai/ha, visual rating, scale 0 (no effect) to 100 (complete control)
[19] = 500 g ai/ha, scale 0 to 100, 0 is no effect, 100 is complete control

CCn1nc(C(C)(C)C)cc1C(=O)Nc1cc(C(=O)N2CCCC2)ccc1F [Compound 242]
40: Plant response rating, Cocklebur [1, 17] | Cocklebur plant response rating ([1]; 125 g ai/ha, visual rating) | Corn plant response rating [5, 19]
70: Surinam Grass plant response rating (0 to 100 scale) [4, 16]
100: Plant response rating, Velvetleaf [3, 17] | Plant response rating, Barnyardgrass [6, 17] | Plant response rating, Crabgrass, Large [10, 17] | Pigweed plant response rating (0 to 100 scale) [12, 16] | Plant response rating, Pigweed [12, 17] | Lambsquarters plant response rating (0 to 100 scale) [14, 16] | Plant response rating, Lambsquarters [14, 17]
10: Cocklebur plant response rating (0 to 100 scale) [1, 16] | Corn plant response rating [5, 18] | Oat, Wild plant response rating [7, 18] | Wheat plant response rating [9, 18] | Wheat plant response rating [9, 19] | Blackgrass plant response rating ([15]; 125 g ai/ha)
80: Barnyardgrass plant response rating (0 to 100 scale) [6, 16] | Foxtail, Giant plant response rating (0 to 100 scale) [11, 16] | Pigweed plant response rating [12, 19]
90: Cocklebur plant response rating ([1]; 500 g ai/ha, visual rating) | Sedge, Umbrella plant response rating [2] | Plant response rating, Surinam Grass [4, 17] | Ducksalad plant response rating [8] | Crabgrass, Large plant response rating (0 to 100 scale) [10, 16] | Plant response rating, Foxtail, Giant [11, 17] | Rice plant response rating [13] | Lambsquarters plant response rating [14, 18] | Lambsquarters plant response rating [14, 19]
30: Surinam Grass plant response rating [4, 18] | Corn plant response rating (0 to 100 scale) [5, 16] | Oat, Wild plant response rating [7, 19] | Crabgrass, Large plant response rating [10, 18] | Foxtail, Giant plant response rating [11, 19]
60: Velvetleaf plant response rating [3, 19] | Surinam Grass plant response rating [4, 19] | Plant response rating, Corn [5, 17] | Barnyardgrass plant response rating ([6]; 500 g ai/ha, visual rating) | Pigweed plant response rating [12, 18]
50: Velvetleaf plant response rating (0 to 100 scale) [3, 16] | Velvetleaf plant response rating [3, 18] | Barnyardgrass plant response rating ([6]; 125 g ai/ha, visual rating) | Crabgrass, Large plant response rating [10, 19]
20: Foxtail, Giant plant response rating [11, 18] | Blackgrass plant response rating ([15]; 500 g ai/ha)
